Data as given in PubChem BioAssay (NCI).
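Protocol summary: plate cells (96-well), add compound at 5 concentrations, incubate 48 h, interpolate endpoints linearly. The concentration for 50% growth inhibition is given as GI50. TGI is the concentration that stops growth completely.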

What was measured:
Assay in all cases: inhibition of tumour cell growth, NCI panel, 48 h
BT-549 breast = system: BT-549 breast
DU-145 prostate = system: DU-145 prostate
HCT-116 colon = system: HCT-116 colon
NCI-H460 lung = system: NCI-H460 lung
SF-295 CNS = system: SF-295 CNS
SF-539 CNS = system: SF-539 CNS
TK-10 renal = system: TK-10 renal
U251 CNS = system: U251 CNS
UACC-257 melanoma = system: UACC-257 melanoma
UACC-62 melanoma = system: UACC-62 melanoma

Row | SMILES | GI50 (BT-549 breast) | TGI (BT-549 breast) | GI50 (DU-145 prostate) | TGI (DU-145 prostate) | GI50 (HCT-116 colon) | GI50 (NCI-H460 lung) | TGI (NCI-H460 lung) | GI50 (SF-295 CNS) | TGI (SF-295 CNS) | GI50 (SF-539 CNS) | TGI (SF-539 CNS) | GI50 (TK-10 renal) | TGI (TK-10 renal) | GI50 (U251 CNS) | TGI (U251 CNS) | GI50 (UACC-257 melanoma) | TGI (UACC-257 melanoma) | GI50 (UACC-62 melanoma) | TGI (UACC-62 melanoma) | TGI (HCT-116 colon)
1 | COC(=O)CCC(=O)c1c(C)[nH]c(/C=C2\N=C(c3ccc[nH]3)C=C2OC)c1C | 0.587 µM | 2.17 µM | 0.344 µM | 1.8 µM | 0.257 µM | 6.86 µM | 40.9 µM | 1.62 µM | 4.08 µM | 1.18 µM | 3.03 µM | 1.18 µM | 7.74 µM | 1.08 µM | 3.2 µM | 2.27 µM | 6.37 µM | 1.37 µM | 3.49 µM | 
2 | COCCOC(=O)C1=C(C)NC2=C(C(=O)CC(c3ccccc3OC)C2)C1c1cccc(O)c1 (centres undefined) | 11.7 µM | 37.5 µM | 23.5 µM | > 91.9 µM | 12.8 µM | 15.5 µM | 42.9 µM | 11.5 µM | 35.2 µM | 11.9 µM | 43.4 µM | 4.26 µM | 30.7 µM | 16.3 µM | > 72.2 µM | 8.8 µM | 61.1 µM | 4.51 µM | 29.3 µM | 35.4 µM
3 | CCC(Sc1nnc2c3ccccc3n(CC)c2n1)C(=O)Nc1ccccc1OC (centres undefined) | > 100 µM | > 100 µM | > 100 µM | > 100 µM | 48.5 µM | > 100 µM | > 100 µM | > 100 µM | > 100 µM | > 100 µM | > 100 µM | > 100 µM | > 100 µM | > 100 µM | > 100 µM | > 100 µM | > 100 µM | > 100 µM | > 100 µM | > 100 µM
4 | COc1ccc(-c2n[nH]nc2-c2csc3ccccc23)cc1OC | 2.17 µM | 12.5 µM | 3.77 µM | > 100 µM | 2.84 µM | 3.56 µM | 18.9 µM | 2.33 µM | 11.7 µM | 1.84 µM | 5.79 µM | 2.98 µM | 19.8 µM | 2.19 µM | 11.4 µM | 10.9 µM | 55.6 µM | 2.77 µM | 22.2 µM | 15.3 µM
5 | COc1ccc2[nH]cc(-c3nc(-c4cn(C)c5ccncc45)cs3)c2c1 | 1.79 µM | 3.4 µM | 1.7 µM | 3.11 µM | 1.77 µM | 1.97 µM | 3.67 µM | 12.3 µM | 25.7 µM | 1.9 µM | 3.37 µM | 1.48 µM | 3.12 µM | 1.91 µM | 3.42 µM | 16.7 µM | 33.3 µM | 18.5 µM | 37.5 µM | 3.21 µM
6 | O=C1C=C(Nc2ccccc2C(=O)CC(=O)C(=O)Nc2cccc(C(F)(F)F)c2)c2ccccc2C1=O |  | 49.1 µM |  | > 100 µM |  |  | > 100 µM |  | 53.7 µM |  | 49 µM |  | > 100 µM |  | 96.5 µM |  | 31.8 µM |  | 32.3 µM | 74.3 µM
7 | O=C1OC(c2ccc(O)c(-c3ccccc3)c2)(c2ccc(O)c(-c3ccccc3)c2)c2c(Cl)c(Cl)c(Cl)c(Cl)c21 |  | > 100 µM |  | > 100 µM |  |  | > 100 µM |  | > 100 µM |  | > 100 µM |  | > 100 µM |  | > 100 µM |  | > 100 µM |  | > 100 µM | > 100 µM
8 | Nc1ccc2c(c1)C(=O)c1c(F)cccc1-2 |  | > 100 µM |  | > 100 µM |  |  | > 100 µM |  | > 100 µM |  | 81.1 µM |  | > 100 µM |  | > 100 µM |  | > 100 µM |  | > 100 µM | > 100 µM
9 | N#Cc1ccccc1C#C/C=C\C#Cc1ccc(OCCCNC(=O)c2cc3ccccc3[nH]2)cc1 | 20.2 µM | > 100 µM | 19.4 µM | 78.9 µM | 14.8 µM | 33.9 µM | > 100 µM | 16.1 µM | 34.6 µM | 15.4 µM | 35.6 µM | 15.7 µM | 34 µM | 10.7 µM | 22.5 µM | 23 µM | > 100 µM | 13.7 µM | 28.4 µM | 39.6 µM
10 | CCCCCCCCCCCCCCCc1cc(O)ccc1N | 0.305 µM | > 74.7 µM | > 100 µM | > 100 µM | > 100 µM | > 100 µM | > 100 µM | 3.46 µM | > 100 µM | 0.702 µM | 2.19 µM | > 63 µM | > 100 µM | > 80.2 µM | > 100 µM | 11.3 µM | > 80.1 µM | 13.2 µM | > 100 µM | > 100 µM
11 | O=S1(=O)CCN(Cc2ccccn2)CC1 |  | > 100 µM |  | > 100 µM |  |  | > 100 µM |  | > 100 µM |  | > 100 µM |  | > 100 µM |  | > 100 µM |  | > 100 µM |  | > 100 µM | > 100 µM
12 | CC(=O)O[C@@H]1CO[C@H]2O[C@H]3[C@@H](C(C=O)=C[C@H](O)[C@@H]4C5=C(C(C)C)CC[C@]5(C)CC[C@@]34C)[C@@]2(O)C1=O |  | 0.353 µM |  | 2.02 µM |  |  | 0.699 µM |  | 3.98 µM |  | 0.37 µM |  | 0.596 µM |  | 0.55 µM |  | 0.629 µM |  | 1.06 µM | 0.27 µM
13 | O=[N+]([O-])c1ccccc1N=Nc1c(O)[nH]c2ccccc12 |  | > 100 µM |  | > 89.8 µM |  |  | > 96.6 µM |  | > 100 µM |  | 23.9 µM |  | > 100 µM |  | > 58.2 µM |  | > 100 µM |  | > 100 µM | > 54.2 µM
14 | O=C(O)C1C2CC3C(OC(=O)C31)C2Br (centres undefined) |  | > 100 µM |  | > 100 µM |  |  | > 100 µM |  | > 100 µM |  | > 100 µM |  | > 100 µM |  | > 100 µM |  | > 100 µM |  | > 100 µM | > 100 µM
15 | COc1cnc2c(c1)C(=O)c1c-2n(CCCn2ccnc2)c(=O)c2cc(Cl)ccc12 | 0.146 µM | > 100 µM | 0.0432 µM | > 100 µM | 0.0147 µM | < 0.01 µM | 0.271 µM | 0.0251 µM | 0.0794 µM | 0.0388 µM | 0.321 µM | 0.744 µM | > 100 µM | 0.0144 µM | 0.119 µM | 0.0904 µM | 1.91 µM | 0.0283 µM | 0.204 µM | 0.216 µM
16 | CCN(CC)CCOc1ccc(/C=C2\CC3C4CCC5=CC(=O)CC[C@]5(C)C4CC[C@]3(C)C2=O)cc1OC (some centres undefined) | 5.02 µM | 19.7 µM | 3.26 µM | 16.4 µM | 1.85 µM | 2.85 µM | 11.2 µM | 2.01 µM | 4.06 µM | 2.06 µM | 6.13 µM | 2.45 µM | 5.59 µM | 2.57 µM | 8.39 µM | 3.43 µM | 11.1 µM | 2.01 µM | 4.13 µM | 4.45 µM
17 | CCN(CC)c1ccc2c(c1)Oc1nc(N)c(C#N)c(N)c1C2Sc1ccc(SC)cc1 (centres undefined) | 1.42 µM | 2.78 µM | 1.82 µM | 3.21 µM | 1.46 µM | 1.8 µM | 3.69 µM | 1.67 µM | 3.12 µM | 1.64 µM | 3 µM | 2.59 µM | 4.1 µM | 1.35 µM | 2.7 µM | 3.23 µM | 6.22 µM | 1.48 µM | 2.96 µM | 2.81 µM
18 | Nc1cc(-c2ccccc2)ccc1O | 79.3 µM | > 100 µM | 82.3 µM | > 100 µM | 54.6 µM | > 100 µM | > 100 µM | 55.2 µM | > 100 µM | > 100 µM | > 100 µM | > 100 µM | > 100 µM | > 100 µM | > 100 µM | > 100 µM | > 100 µM | 37.3 µM | > 100 µM | > 100 µM
